In US12221425B2, “Process for the preparation of CIC-1 chloride channel inhibitors” (NMD PHARMA A/S, priority 2019, dated 2025):

Target: T1, human CIC-1 channels (Homo sapiens, UniProt P35523)
T1 construct: host or cells: CHO (Chinese hamster ovary) cells constitutively expressing human ClC-1
Assay: Automated whole cell patch clamp (Qpatch 16) on CHO cells expressing human CIC-1, compound added intracellularly
Format: cell-based
Conditions: compound in intracellular solution vs vehicle control patches, positive shift reflects CIC-1 inhibition
Method: The investigatory goal of these experiments was to evaluate how compounds affect the open probability and current amplitude of human CIC-1 channels expressed in CHO cells. Experiments were performed using an automated patch clamp system that allowed high throughput testing of whole cell patches together with both intracellular and extracellular addition of compound.
Automated whole cell patch clamp experiments were performed with the Qpatch 16 system (Sophion Bioscience, Ballerup, Denmark) at room temperature. Data acquisition and analysis were performed in the Qassay software (ver. 5.6, Odense).
To evoke CIC-1 currents in whole cell patches, the membrane potential was initially stepped from a holding potential of −30 mV to +60 mV for 100 ms and then to various test voltages (sweeps) ranging from +120 mV to −140 mV in steps of 20 mV for 300 ms. To obtain tail currents, the membrane potential was stepped to −100 mV after each test voltage for 300 ms and then relaxed to −30 mV for 2 sec between sweeps (FIG. 1). I/V relationships for whole cell instant and steady state current amplitudes were obtained by plotting average current densities at the beginning and at the end of the 300 ms step against the membrane potential (FIG. 2).
In order to determine the relative overall open probability (P0), the instantaneous tail currents were normalized to the maximal tail current obtained following the most positive voltage step and plotted against the test voltage. Plots of normalized tail currents from each whole cell patch were then fitted to a Boltzmann function allowing determination of half activation voltages (V1/2, FIG. 3).
For automated patch clamp experiments extracellular solutions contained: 2 mM CaCl2, 1 mM MgCl2, 10 mM HEPES, 4 mM KCl, 145 mM NaCl, 10 mM Glucose, pH adjusted to 7.4 with NaOH (2 M). Osmolality adjusted to ˜320 using sucrose.
Intracellular solutions contained: 80 mM CsF, 60 mM CsCl, 5/1 mM KOH/EGTA, 10 mM HEPES, 10 mM NaCl, pH adjusted to 7.2 with NaOH (2 M). Osmolality adjusted to ˜320 mOsm using sucrose.
Cells used in patch clamp experiments were Chinese hamster ovary cells (CHO) constitutively expressing human CIC-1 channels. The amino acid sequence encoded by the cDNA used to create this cell line was identical to the translated sequence for GenBank accession number NM_000083.2. Cells were produced by Charles River (Catalogue CT6175, Cleveland OH, USA) in a cryopreserved format. Experiments were performed on the cells directly after thawing (3×10^6 cells used in each experiment).
To evaluate the compound effect on CIC-1, when applied directly to the intracellular side of the cell membrane, the half activation voltage, V1/2, was determined from whole cell patches with compound added to the intracellular solution and then compared to V1/2 determined from control cell patches with only vehicle added to the intracellular solution. Additionally, the effect of extracellular added compound was evaluated by determine V1/2 and steady state current amplitudes before and after exchanging the extracellular solution to contain compound.
The difference in half activation voltage of CIC-1 channels, ΔV1/2, was determined as the difference between the cell patches treated intracellularly with compound and control cells patches and is reported in Table 1 below. A positive shift in ΔV1/2 is reflecting CIC-1 channel inhibition by the tested compound. P-values of <0.05 is considered significant.

T1 sequence (P35523 whole entry): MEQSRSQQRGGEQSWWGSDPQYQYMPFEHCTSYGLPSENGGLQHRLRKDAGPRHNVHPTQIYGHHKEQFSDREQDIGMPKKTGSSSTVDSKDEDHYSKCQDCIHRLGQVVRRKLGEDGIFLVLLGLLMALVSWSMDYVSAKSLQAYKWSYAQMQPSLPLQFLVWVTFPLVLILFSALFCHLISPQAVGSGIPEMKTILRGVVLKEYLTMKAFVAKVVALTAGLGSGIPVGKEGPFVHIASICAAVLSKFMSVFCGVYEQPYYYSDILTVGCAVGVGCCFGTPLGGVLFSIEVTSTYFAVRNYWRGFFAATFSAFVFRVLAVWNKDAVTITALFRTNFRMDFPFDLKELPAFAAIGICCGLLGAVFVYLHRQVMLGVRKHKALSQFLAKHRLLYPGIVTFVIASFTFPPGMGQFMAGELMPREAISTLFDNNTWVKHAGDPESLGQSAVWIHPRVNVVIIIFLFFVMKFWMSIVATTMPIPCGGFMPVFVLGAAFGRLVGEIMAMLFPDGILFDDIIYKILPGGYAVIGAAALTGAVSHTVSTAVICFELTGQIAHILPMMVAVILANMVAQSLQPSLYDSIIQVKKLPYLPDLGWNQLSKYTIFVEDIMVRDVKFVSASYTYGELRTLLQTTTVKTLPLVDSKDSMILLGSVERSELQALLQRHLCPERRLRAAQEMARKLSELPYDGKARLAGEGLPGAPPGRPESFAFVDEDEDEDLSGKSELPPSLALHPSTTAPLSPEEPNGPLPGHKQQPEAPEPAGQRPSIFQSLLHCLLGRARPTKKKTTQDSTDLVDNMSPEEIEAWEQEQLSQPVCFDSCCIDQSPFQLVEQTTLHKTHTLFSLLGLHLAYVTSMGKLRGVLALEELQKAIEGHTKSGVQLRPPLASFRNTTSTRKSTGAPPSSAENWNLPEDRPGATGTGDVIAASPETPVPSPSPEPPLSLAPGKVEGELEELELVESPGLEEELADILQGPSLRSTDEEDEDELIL

| SMILES | Shift in half activation voltage, ΔV1/2 |
| --- | --- |
| CC[C@H](Oc1ccc(Br)cc1-c1ccon1)C(=O)O [(2S)-2-[4-bromo-2-(1,2-oxazol-3-yl)phenoxy]butanoic acid] | 7.2 mV |
| C[C@H](Oc1cc(F)c(Br)cc1-c1ccon1)C(=O)O [(2S)-2-[4-bromo-5-fluoro-2-(1,2-oxazol-3-yl)phenoxy]propanoic acid] | 17.7 mV |
| C[C@H](Oc1ccc(Br)cc1-c1ccon1)C(=O)O [(2S)-2-(4-bromo-2-(isoxazol-3-yl)phenoxy)propanoic acid] | 14.1 mV |
| C[C@H](Oc1ccc(Cl)cc1-c1ccon1)C(=O)O [(2S)-2-[4-chloro-2-(1,2-oxazol-3-yl)phenoxy]propanoic acid] | 8.1 mV |
| O=C(O)COc1ccc(Br)cc1-c1ccon1 [2-[4-bromo-2-(1,2-oxazol-3-yl)phenoxy]acetic acid] | 11.3 mV |
